This note sets out measurements from US11046954B2, “Targeted protein degradation to attenuate adoptive T-cell therapy associated adverse inflammatory responses” (Dana-Farber Cancer Institute, Inc., priority 2015, dated 2021).

One assay deals with FKBP*-KRASG12V. The assay can be described thus: Immunoblot of NIH3T3 cells expressing FKBP* fused to KRASG12V: degradation. Format: cell-based. Particulars: 1 μM, 24 hours. On the procedure:
(§1) FIG. 19 is an immunoblot of NIH3T3 cells expressing KRASG12V allele fused to FKBP* in the N-terminus or C-terminus. Cells were treated with 500 nM dFKBP7 for the indicated time. Cells were harvested and immunoblotted to measure degradation of FKBP*-KRASG12V and downstream surrogates of KRAS signaling (e.g. pMEK and pAKT).
(§2) FIG. 20 is an immunoblot of NIH3T3 cells expressing FKBP* fused to the N-terminus of KRASG12V treated with luM of the indicated dFKBP heterobifunctional compounds for 24 hours. Cells were harvested and immunoblotted to measure degradation of FKBP*-KRASG12V and downstream surrogates of KRAS signaling (e.g. pMEK and pAKT).
(§3) FIG. 21 is an immunoblot of NIH3T3 cells expressing FKBP* fused to the N-terminus of KRASG12V treated with the indicated concentrations of dFKBP13 for 24 hours. Cells were harvested and immunoblotted to measure degradation of FKBP*-KRASG12V and downstream surrogates of KRAS signaling (e.g. pMEK and pAKT).
(§4) FIG. 22 is an immunoblot of NIH3T3 cells expressing FKBP* fused to the N-terminus of KRASG12V treated with luM dFKBP13 for the indicated time. Cells were harvested and immunoblotted to measure degradation of FKBP*-KRASG12V and downstream surrogates of KRAS signaling (e.g. pMEK and pAKT).
(§5) Cells were treated with 500 nM dFKBP7 for the indicated time. Cells were harvested and immunoblotted to measure degradation of FKBP*-KRAS and downstream surrogates of KRAS signaling (e.g. pMEK and pAKT).
(§6) Western blotting of NIH3T3 cells expressing dTAG-KRASG12V were treated with 1 μM of the indicated dFKBP heterobifunctional compounds for 24 hours. Cells were harvested and immunoblotted to measure degradation of FKBP*-KRAS and downstream surrogates of KRAS signaling (e.g. pMEK and pAKT).
(§7) Western blotting of NIH3T3 cells expressing FKBP* fused to the N-terminus of KRAS treated with the indicated concentrations of dFKBP13 for 24 hours. Cells were harvested and immunoblotted to measure degradation of FKBP*-KRAS and downstream surrogates of KRAS signaling (e.g. pMEK and pAKT).
(§8) To evaluate the kinetic control of targeted degradation of dTAG-KRAS, dFKBP13 was administered by increased duration. Western blotting of NIH3T3 cells expressing FKBP* fused to the N-terminus of KRAS treated with 1 μM dFKBP13 for the indicated time. Cells were harvested and immunoblotted to measure degradation of FKBP*-KRAS and downstream surrogates of KRAS signaling (e.g. pMEK and pAKT).

The subject of assay [1] is downstream surrogates of KRAS signaling (e.g. pMEK and pAKT). The assay is described as follows: Immunoblot of NIH3T3 cells expressing FKBP*-KRASG12V: downstream KRAS signaling. It is filed as cell-based. Particulars: NIH3T3 FKBP*-KRASG12V; 1 μM, 24 hours. On the procedure: as §1, §2, §3, §4, §5, §6, §7, §8

On to `CC[C@H](C(=O)N1CCCC[C@H]1C(=O)O[C@H](CCc1ccc(OC)c(OC)c1)c1cccc(OCC(=O)NCCCCCCCCNC(=O)COc2cccc3c2C(=O)N(C2CCC(=O)NC2=O)C3=O)c1)c1cc(OC)c(OC)c(OC)c1` (some centres unmarked) [dFKBP9], for which the “degradation of FKBP*-KRASG12V” value in the assay with FKBP*-KRASG12V is listed as “potent degradation”. For the same molecule, the “inhibition of downstream signaling (pMEK, pAKT)” value in assay [1] is on record as “inhibition of downstream signaling”.
